{"source": "paper PMC9225715", "about": "“Development of PD3 and PD3-B for PDEδ inhibition to modulate KRAS activity” (Journal of Enzyme Inhibition and Medicinal Chemistry, 2022)", "target": "T1, PDEδ (Homo sapiens, UniProt O43924)", "T1 construct": "made in house; host or cells: E. coli BL21(DE3)", "T1 sequence (O43924 whole entry)": "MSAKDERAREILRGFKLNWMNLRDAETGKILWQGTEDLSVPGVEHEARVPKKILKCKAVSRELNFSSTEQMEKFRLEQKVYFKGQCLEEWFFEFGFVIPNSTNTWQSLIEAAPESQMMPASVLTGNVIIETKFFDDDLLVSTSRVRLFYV", "assay": "Fluorescence measurement after incubation with recombinant PDEδ", "assay_type": "binding", "conditions": "2 µM PD + 2 µM PDEδ, 20 mM Tris buffer pH 7.5, Ex 280 nm", "protocol": "With the structural rationale for the binding to PDEδ from the molecular docking studies, we measured the fluorescence responses of the PDs after incubation with recombinant PDEδ proteins to confirm the binding of PDs to PDEδ. We envisioned that the hydrophobic environment of the prenyl binding pocket of PDEδ, as depicted in Figure 1(C), could enhance the fluorescent signal due to the solvatochromic characteristics of IQ scaffold. In addition, tryptophan residues near the binding site of PDEδ and the fluorophore of PDs could act as a fluorescence resonance energy transfer (FRET) pair. […] All recoded spectra of PDs are depicted in Supplemental Figure S1. To compare the binding abilities of PD derivatives to the target protein, same concentration (2 µM) of PD compound was treated and then fluorescence intensity was measured in Spectrofluorometer FP-6500.\nThe fluorescence changes were measured to determine the interaction between PD compounds and PDEδ protein. The fluorescence spectra were obtained under Tris buffer [20 mM Tris-HCl (pH 7.5), 100 mM NaCl] at 20 °C. The concentration of PDEδ was 2 µM. After the addition of 2 µM PD compound, the mixture was gently inverted 3 times and then incubated for 1 min. The emission spectra were recorded on Spectrofluorometer FP-6500 (JASCO, Tokyo, Japan) at Ex 280 nm. The band width was 3 nm for excitation and 5 nm for emission."}
{"smiles": "Cc1ccc(-c2nc3ccccc3c3cc4ccccn4c23)cc1", "note": "[PD3, 6-(p-tolyl)indolizino[3,2-c]quinoline]", "values": [{"measurement": "Fluorescence response upon incubation with PDEδ", "result": "exceeded the maximum detection limit of Spectrofluorometer"}]}
